Measured values from patent US11459545B2, “Methods to enhance delivery and engraftment of stem cells including the identification of specific prostaglandin E2 receptors” (INDIANA UNIVERSITY RESEARCH AND TECHNOLOGY CORPORATION, priority 2009, dated 2022).

Tested on: CD34+ cells from cord blood
Assay: CXCR4 expression on CD34+ cells after ex vivo pulse exposure (flow cytometry)
Assay type: cell-based, human
Details: for up regulation of CXCR4 on the surface of CD34+ cells: cord blood samples, ex vivo pulse exposure, cytometry histograms compared to isotype control (FIG. 1)
Experimental: Un-manipulated hematopoietic grafts or purified hematopoietic stem cell populations (e.g., SKL cells in mice or CD34^+ cells in humans) are incubated with an EP4 specific agonist: 5-[(1E,3R)-4,4-difluoro-3-hydroxy-4-phenyl-1-buten-1-yl]-1-[6-(2H-tetrazol-5R-yl)hexyl]-2-pyrrolidinone (i.e. L-902,688), on ice or at room temperature at concentrations of 0.001-10 microMolar agonist per 1-10 million cells in 1 ml of culture medium, e.g. IMDM, for 15 minutes-6 hrs. After incubation, the cells are washed 3 times in sterile media or saline and administered to recipients, intravenously. L-902,688 was a generous gift from Merck Frosst (Kirkland, Canada) (Young, et al., 2004).
Referring now to FIG. 1. This graph illustrates that treatment of cells with EP4 agonist ex vivo specifically up regulates CXCR4 expression on CD34^+ cells. […] The bar graph indicator data measured from such experiments graphed as a function of different compounds used dmPGE2, Butaprostone, sulprostone and EP4.
Referring now to FIG. 2. This graph illustrates that signaling via the EP4 receptor is responsible for up regulation of CXCR4 expression. […] Treatment with EP4 agonist ex vivo up regulates CXCR4 expression on CD34^+ cells. […] In the bar chart this effort is normalized to 100%. […] The fact that up regulation of CXCR4 by an EP4 selective agonist is blocked by a selective EP4 antagonist, but not by EP1, 2, 3, antagonist, provides additional evidence that up regulation is mediated through the EP4 receptor.

| Compound | up regulation of CXCR4 on the surface of CD34+ cells | up regulation of CXCR4 expression on CD34+ cells (ex vivo treatment, combined data for 8 cord blood samples (FIG. 2)) |
| --- | --- | --- |
| CCCCC(C)(C)[C@H](O)/C=C/[C@H]1[C@H](O)CC(=O)[C@@H]1C/C=C\CCCC(=O)O [dmPGE2, 16,16 dimethylprostaglandin E2] | significant up regulation |  |
| O=C1CC[C@H](/C=C/[C@@H](O)C(F)(F)c2ccccc2)N1CCCCCCc1nn[nH]n1 [EP4 agonist, 5-[(1E,3R)-4,4-difluoro-3-hydroxy-4-phenyl-1-buten-1-yl]-1-[6-(2H-tetrazol-5R-yl)hexyl]-2-pyrrolidinone] | significant up regulation | about 3 fold |
